{
  "source": "patent EP0558960A1",
  "about": "“Medicament for the prophylaxis and treatment of the neurologic and psychiatric disorders caused by alcohol abuse, which contains thiamine, folic acid and cobalamine” (priority 1992, dated 1993)",
  "key": {"[1]": {"test": "Thiamine levels in plasma and erythrocytes after oral administration of the medicament with Benfotiamin", "type": "in vivo", "settings": "comparator not printed in b22 (Thiaminhydrochlorid)"}, "[2]": {"test": "Availability and passage of the blood-brain barrier, Benfotiamin compared with Thiaminhydrochlorid", "type": "in vivo"}, "[3]": {"settings": "in contrast to Thiaminhydrochlorid"}},
  "data": [
    {"smiles": "CC(=C(CCOP(=O)(O)O)SC(=O)c1ccccc1)N(C=O)Cc1cnc(C)nc1N", "note": "[Benfotiamin]", "values": [
      {"measurement": "höhere Anstiege von Thiamin und Thiamindiphosphat-coenzymen in den Erythrozyten", "setting": "[1]", "value": "ca. 130 -fach"},
      {"measurement": "höhere Plasmaspiegel an Thiamin", "setting": "[1]", "value": "10 -fach"},
      {"measurement": "Verfügbarkeit", "setting": "[2]; compared with Thiaminhydrochlorid", "value": "besser verfügbar als Thiaminhydrochlorid"},
      {"measurement": "Blut-Hirn-Schranke", "setting": "[2]; [3]", "value": "passiert"},
      {"measurement": "Liquor cerebrospinalis", "setting": "[2]; [3]", "value": "anreichert"}
    ]}
  ]
}
